Read-outs that look alike come from different tables or passages of the source.
Tests used:
SKBR3 cells = assay: SKBR3 Cell Viability Assay (CellTiter Glo); format: cell-based; settings: CellTiter Glo luminescence, read-out: MCL-1 CV SKBR3 EC50
Outline: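 Viability read as CellTiter Glo luminescence after 72 h of compound exposure at 37° C./5% CO2, using 6,000 SKBR3 cells per well in McCoy 5A with 10% FBS. Percent inhibition scaled between DMSO wells and 10 μM puromycin wells.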

[1] = biological target: MCL-1/Bim interaction (recombinant human MCL-1 protein, residues 171-327; biotinylated human Bim peptide, residues 51-76) (Homo sapiens (Human), UniProt Q07820); assay: MCL-1/Bim Binding AlphaLISA Assay; settings: 0.0625 nM 6xHis-Mcl-1 (171-327), 0.0625 nM biotinylated-Bim peptide
Outline: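 Protein 0.0625 nM + cpd, 1 h; add biotin-Bim 0.0625 nM, 2 h; acceptor beads 1 h; donor beads 1 h; AlphaScreen read. Buffer 20 mM Hepes pH 7.5, 150 mM NaCl, 1 mM DTT.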

Sequence of MCL-1/Bim interaction (recombinant human MCL-1 protein, residues 171-327; biotinylated human Bim peptide, residues 51-76) (Q07820 171-327): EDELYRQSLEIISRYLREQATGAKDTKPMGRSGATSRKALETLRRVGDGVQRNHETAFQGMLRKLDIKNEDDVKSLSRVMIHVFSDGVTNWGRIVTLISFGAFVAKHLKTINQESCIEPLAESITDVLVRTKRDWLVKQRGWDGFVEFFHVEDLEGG

| Compound | EC50 (SKBR3 cells; Homo sapiens, SK-BR-3, 72 h) [nM] | IC50 [1] [nM] | EC50 (SKBR3 cells; 72 hours) [nM] |
| --- | --- | --- | --- |
| CO[C@H]1/C=C/C[C@H](C)C[S@@](=O)(NC(=O)N[C@H]2C[C@@H](OC)C2)=NC(=O)c2ccc3c(c2)N(C[C@@H]2CC[C@H]21)C[C@@]1(CCCc2cc(Cl)ccc21)CO3 [Example 149] | 95.3 | 0.109 | – |
| CO[C@H]1/C=C/C[C@H](C)C[S@@](=O)(NC(=O)N[C@H]2C[C@@H]2CN2CCOCC2)=NC(=O)c2ccc3c(c2)N(C[C@@H]2CC[C@H]21)C[C@@]1(CCCc2cc(Cl)ccc21)CO3 [Example 328] | 72.2 | 0.049 | – |
| COc1nn(C)cc1C(=O)N[S@@]1(=O)=NC(=O)c2ccc3c(c2)N(C[C@@H]2CC[C@H]2[C@@H](OC)/C=C/[C@H](OC)CC1)C[C@@]1(CCCc2cc(Cl)ccc21)CO3 [Example 392] | 142 | 0.07 | – |
| CCC(=O)NS1(=O)=NC(=O)c2ccc3c(c2)N(C[C@@H]2CC[C@H]2[C@@H](OC)/C=C/CC[C@H]1CC)C[C@@]1(CCCc2cc(Cl)ccc21)CO3 (single isomer, unassigned) [Example 65] | – | 1.8 | 1970 |
| CO[C@H]1/C=C/C[C@H](C)C[S@@](=O)(NC(=O)c2ccn(C3CC3)c2)=NC(=O)c2ccc3c(c2)N(C[C@@H]2CC[C@H]21)C[C@@]1(CCCc2cc(Cl)ccc21)CO3 [Example 156] | 145 | 0.111 | – |
| CO[C@H]1/C=C/C[C@H](C)C[S@@](=O)(NC(=O)c2cc3n(c2)C[C@H](C)OC3)=NC(=O)c2ccc3c(c2)N(C[C@@H]2CC[C@H]21)C[C@@]1(CCCc2cc(Cl)ccc21)CO3 [Example 167] | 58.6 | 0.141 | – |
| CO[C@H]1/C=C/C[C@H](C)C[S@@](=O)(NC(=O)c2cn(C)nc2N(C)C)=NC(=O)c2ccc3c(c2)N(C[C@@H]2CC[C@H]21)C[C@@]1(CCCc2cc(Cl)ccc21)CO3 [Example 213] | 57 | 0.076 | – |
| CO[C@H]1/C=C/CCC[S@@](=O)(NC(=O)C2CC2)=NC(=O)c2ccc3c(c2)N(C[C@@H]2CC[C@H]21)C[C@@]1(CCCc2cc(Cl)ccc21)CO3 [Example 27] | 2080 | 1.6 | – |
| CO[C@H]1/C=C/C[C@H](C)C[S@@](=O)(NC(=O)[C@@]23COCC2C3)=NC(=O)c2ccc3c(c2)N(C[C@@H]2CC[C@H]21)C[C@@]1(CCCc2cc(Cl)ccc21)CO3 (stereo partly shown) [Example 446] | 176 | 0.149 | – |
| CO[C@H]1/C=C/C[C@H](C)C[S@@](=O)(NC(=O)c2ccc3ncnn3c2)=NC(=O)c2ccc3c(c2)N(C[C@@H]2CC[C@H]21)C[C@@]1(CCCc2cc(Cl)ccc21)CO3 [Example 432] | 172 | 0.07 | – |
| COc1nn(C)cc1C(=O)N[S@@]1(=O)=NC(=O)c2ccc3c(c2)N(C[C@@H]2CC[C@H]2[C@@H](OC)/C=C/[C@H](OCCN2CCOCC2)[C@H](C)C1)C[C@@]1(CCCc2cc(Cl)ccc21)CO3 [Example 295] | 22 | 0.04 | – |
| C[C@@H]1[C@@H](C)C/C=C/[C@H](O)[C@@H]2CC[C@H]2CN2C[C@@]3(CCCc4cc(Cl)ccc43)COc3ccc(cc32)C(=O)N=[S@]1(=O)NC(=O)c1cc2n(c1)C[C@H](CN1CCOCC1)OC2 [Example 327] | 28.6 | 0.051 | – |
| CC[C@@H]1CC1NC(=O)N[S@@]1(=O)=NC(=O)c2ccc3c(c2)N(C[C@@H]2CC[C@H]2[C@@H](OC)/C=C/C[C@H](C)C1)C[C@@]1(CCCc2cc(Cl)ccc21)CO3 (stereo partly shown) [Example 199] | 58.2 | 0.117 | – |
| CO[C@H]1/C=C/CCC[S@](N)(=O)=NC(=O)c2ccc3c(c2)N(C[C@@H]2CC[C@H]21)C[C@@]1(CCCc2cc(Cl)ccc21)CO3 [Example 6] | – | 27.3 | 8730 |
| COCC(=O)NS1(=O)=NC(=O)c2ccc3c(c2)N(C[C@@H]2CC[C@H]2[C@@H](OC)/C=C/CCC1)C[C@@]1(CCCc2cc(Cl)ccc21)CO3 (single isomer, unassigned) [Example 7] | – | 1.2 | 4800 |
| CO[C@H]1/C=C/C[C@H](C)C[S@@](=O)(NC(=O)NC2CCOCC2)=NC(=O)c2ccc3c(c2)N(C[C@@H]2CC[C@H]21)C[C@@]1(CCCc2cc(Cl)ccc21)CO3 [Example 442] | 122 | 0.134 | – |
| COc1nn(C)cc1C(=O)N[S@@]1(=O)=NC(=O)c2ccc3c(c2)N(C[C@@H]2CC[C@H]2[C@@H](OC)/C=C/[C@H](OC)[C@H](C)C1)C[C@@]1(CCCc2cc(Cl)ccc21)CO3 [Example 283] | 84.8 | 0.029 | – |
| CO[C@H]1/C=C/CCC[S@](=O)(NC(=O)N2CCS(=O)(=O)CC2)=NC(=O)c2ccc3c(c2)N(C[C@@H]2CC[C@H]21)C[C@@]1(CCCc2cc(Cl)ccc21)CO3 [Example 74] | 10000 | 7.3 | – |
| CO[C@H]1/C=C/C[C@H](C)C[S@@](=O)(NC(=O)N[C@@H]2C[C@H]2C2CCOCC2)=NC(=O)c2ccc3c(c2)N(C[C@@H]2CC[C@H]21)C[C@@]1(CCCc2cc(Cl)ccc21)CO3 [Example 181] | 37.9 | 0.146 | – |
| COC[C@H]1Cn2cc(C(=O)N[S@@]3(=O)=NC(=O)c4ccc5c(c4)N(C[C@@H]4CC[C@H]4[C@@H](O)/C=C/C[C@H](C)[C@H]3C)C[C@@]3(CCCc4cc(Cl)ccc43)CO5)cc2CO1 [Example 344] | 18.5 | 0.049 | – |
| COc1nn(C)cc1C(=O)N[S@@]1(=O)=NC(=O)c2ccc3c(c2)N(C[C@@H]2CC[C@H]2[C@@H](O)CCC[C@H](C)[C@H]1C)C[C@@]1(CCCc2cc(Cl)ccc21)CO3 [Example 290] | 26.4 | 0.03 | – |
| COc1nn(C)cc1C(=O)N[S@@]1(=O)=NC(=O)c2ccc3c(c2)N(C[C@@H]2CC[C@H]2[C@@H](OC)/C=C/CCC1)C[C@@]1(CCCc2cc(Cl)ccc21)CO3 [Example 389] | 304 | 0.075 | – |
| CO[C@H]1/C=C/CCC[S@@](=O)(NC(=O)CCS(C)(=O)=O)=NC(=O)c2ccc3c(c2)N(C[C@@H]2CC[C@H]21)C[C@@]1(CCCc2cc(Cl)ccc21)CO3 [Example 28] | 8410 | 0.2 | – |
| COCCOC1CCN(C(=O)N[S@@]2(=O)=NC(=O)c3ccc4c(c3)N(C[C@@H]3CC[C@H]3[C@@H](OC)/C=C/C[C@H](C)C2)C[C@@]2(CCCc3cc(Cl)ccc32)CO4)CC1 [Example 234] | 73.9 | 0.053 | – |
| COc1nn(C)cc1C(=O)N[S@@]1(=O)=NC(=O)c2ccc3c(c2)N(C[C@@H]2CC[C@H]2[C@@H](O)/C=C/C[C@H](C)C1)C[C@@]1(CCCc2cc(Cl)ccc21)CO3 [Example 223] | 37.3 | 0.039 | – |
| CO[C@H]1/C=C/C[C@H](C)C[S@@](=O)(NC(=O)[C@H]2C[C@@H]2c2cccnc2)=NC(=O)c2ccc3c(c2)N(C[C@@H]2CC[C@H]21)C[C@@]1(CCCc2cc(Cl)ccc21)CO3 [Example 426] | 316 | 0.091 | – |
| CO[C@H]1/C=C/CCC[S@@](=O)(NC(=O)CCc2ccco2)=NC(=O)c2ccc3c(c2)N(C[C@@H]2CC[C@H]21)C[C@@]1(CCCc2cc(Cl)ccc21)CO3 [Example 88] | 2570 | 1.5 | – |
| CO[C@H]1/C=C/C[C@H](C)C[S@@](=O)(NC(=O)N2CC3(CCOC3)C2)=NC(=O)c2ccc3c(c2)N(C[C@@H]2CC[C@H]21)C[C@@]1(CCCc2cc(Cl)ccc21)CO3 [Example 456] | 174 | 0.099 | – |
| COc1nn(C)cc1C(=O)N[S@@]1(=O)=NC(=O)c2ccc3c(c2)N(C[C@@H]2CC[C@H]2[C@@H](OC(=O)CN(C)C)/C=C/C[C@H](C)C1)C[C@@]1(CCCc2cc(Cl)ccc21)CO3 [Example 301] | 41.9 | 0.04 | – |
